Laboratory results: patent US20180284095A1, “BIOMARKERS ASSOCIATED WITH LSD1 INHIBITORS AND USES THEREOF” (Oryzon Genomics, S.A., priority 2015, published 2018)

Columns and labels:
Assay type in all cases: in vivo, mouse
[1] = tested on: SAMP8 mice; experiment: Novel Object Recognition Test (NORT) in SAMP8 mice
Excerpt: The Senescence Accelerated Mouse Prone 8 (SAMP8) strain is a non-transgenic model for neurodegeneration reminiscent of Alzheimer's disease (T Takeda, Neurobiol Aging 1999, 20(2):105-10). Memory deficits appear around 5 months of age in SAMP8 mice and can be reliably assessed using the Novel Object Recognition Test (NORT).
Males and females were separated in two different cohorts and all treatments started at 5 months of age. […] Based on the results obtained in the first experiment, doses were adjusted in a second experiment using male mice.
The dose was calculated according to the animal water consumption average par cage and adjusted weekly. The test compound (or vehicle) was available for 5 days followed by a 2 day clearance in a weekly period.
NORT is used to assess animal's behavior when it is exposed to a novel and a familiar object (M Antunes and G Biala, Cogn Process. 2012, 13(2): 93-110). […]
The NORT test was performed after 2 (n=16/group) and repeated at 4 (n=10/group) months of treatment (between […] and 6:30 pm). […] During this second trial, objects A and B were placed in the maze, and the time that the animal explored the new object (tn) and the old object (to) were video-recorded. […]
Statistical analysis was performed using the GraphPad Prism 6.0 software package. NORT data from SAMP8 mice was analyzed by one-way ANOVA with treatment as the main factor. […]

[2] = tested on: S100A9; experiment: qRT-PCR, hippocampus of SAMP8 mice (Example 5); settings: 2 or 4 months
Excerpt: (§1) qRT-PCR is a variant of the PCR (Polymerase Chain Reaction) method that permits the simultaneous exponential amplification and detection of specific cDNA fragments. The Taqman gene expression assays employ the principle of doubly labeled hydrolysis probes. The probes are marked with a fluorescent moiety at their 5′ end and with a quencher moiety at the 3′ end, which prevents the generation of fluorescence according to the Förster energy transfer principle.
(§2) During the amplification process, the hydrolysis probe hybridizes to its complementary sequence in the target amplicon. During each cycle, the Taq polymerase initiates the production of a copy of the target sequence starting from the primer. When the Taq polymerase reaches the hydrolysis probe, its 5′-3′ exonuclease activity fragments the hydrolysis probe, and liberates the fluorescent group from the quencher moiety, resulting in the emission of a fluorescent signal.
(§3) In the exponential phase of the amplification reaction, the intensity of the fluorescence is directly proportional to the quantity of PCR product formed. The LightCycler® 480 Software determines the “crossing point” (Cp), i.e. the point where the reaction's fluorescence reaches the maximum of the second derivative of the amplification curve, which corresponds to the point where the acceleration of the fluorescence signal is at its maximum. […] The 2-Cp values are proportional to the target mRNA concentration in the original RNA sample.
(§4) Samples from animals receiving treatment for 2 months and 4 months were processed and statistically analyzed together. After extraction (RNeasy Mini KIT; QIAGEN), total RNA was reverse transcribed to obtain 1st strand cDNA (High Capacity RNA-to-cDNA Master Mix; Applied Biosystems). A serial dilution of 1st strand product from hippocampus was used to perform triplicate qRT-PCR (Taqman gene expression assay, Life technologies) reactions to analyze the Cp values of S100A8 and S100A9. Cp increase was normalized relative to the expression level of an endogenous reference gene (GADPH).

[3] = tested on: S100A8; experiment: qRT-PCR, hippocampus of SAMP8 mice (Example 5); settings: SAMP8 female mice
Excerpt: as §1, §2, §3, §4

## (−) 5-((((trans)-2-(4-(benzyloxy)phenyl)cyclopropyl)amino)methyl)-1,3,4-oxadiazol-2-amine [Compound 1]
[1]; SAMP8 males and females, after 2 m and 4 m of treatment
  memory loss as assessed by NORT: completely prevents memory loss
[1]; SAMP8 males, 0.32 and 0.96 mg/kg/day in drinking water, 2 and 4 months
  memory deficits (NORT), medium- and long-term memory: rescued the memory deficits
[2]; SAMP8 females, 0.96 mg/kg/day (p<0.001) and 3.2 mg/kg/day (p<0.001)
  S100A9 expression (Δ Cp, qRT-PCR): down-regulated S100A9 expression in a dose-dependent fashion
[2]; SAMP8 females, 0.96 mg/kg/day (p<0.001) and 3.2 mg/kg/day (p<0.001), listed as compound 1
  S100A9 expression (Δ Cp, qRT-PCR): reduction of S100A9 expression
[2]; SAMP8 males, 0.96 mg/kg (p<0.001), 0.96 mg/kg
  S100A9 expression (Δ Cp, qRT-PCR): down-regulated S100A9 expression
[2]; SAMP8 males, 0.96 mg/kg (p<0.001), listed as compound 1, 0.96 mg/kg
  S100A9 expression (Δ Cp, qRT-PCR): reduction of S100A9 expression
[3]
  S100A8 expression (qRT-PCR): down-regulated S100A8 expression tendency
